Results as given in patent US6653300B2, “Pyrazole compounds useful as protein kinase inhibitors” (Vertex Pharmaceuticals Incorporated, priority 2000, dated 2003).
Where two headings read alike, the source gives them in different places.

Assays:
human Src kinase = target: T1, human Src kinase (Homo sapiens, UniProt P12931); assay: SRC inhibition assay (radioactivity-based or spectrophotometric assay); assay type: biochemical; settings: recombinant human Src kinase, assay A or B
T1 construct: full length recombinant human Src kinase (from Upstate Biotechnology, cat. no. 14-117); purchased Upstate Biotechnology 14-117; host or cells: baculo viral cells
T1 sequence (P12931 whole entry): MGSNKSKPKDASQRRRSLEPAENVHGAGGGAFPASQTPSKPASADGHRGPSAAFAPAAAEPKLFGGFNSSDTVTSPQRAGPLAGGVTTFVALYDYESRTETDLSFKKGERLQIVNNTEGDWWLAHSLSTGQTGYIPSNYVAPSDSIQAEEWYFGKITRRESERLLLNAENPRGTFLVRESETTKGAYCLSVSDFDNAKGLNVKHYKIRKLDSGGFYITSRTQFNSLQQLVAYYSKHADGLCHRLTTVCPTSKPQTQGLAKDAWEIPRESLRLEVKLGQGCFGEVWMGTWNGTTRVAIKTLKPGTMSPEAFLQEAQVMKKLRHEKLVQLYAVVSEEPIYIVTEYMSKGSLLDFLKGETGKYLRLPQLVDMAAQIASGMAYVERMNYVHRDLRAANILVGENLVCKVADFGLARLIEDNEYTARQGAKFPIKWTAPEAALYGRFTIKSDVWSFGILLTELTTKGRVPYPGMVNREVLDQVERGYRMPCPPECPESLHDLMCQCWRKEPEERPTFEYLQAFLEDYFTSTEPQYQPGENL
Experimental: The compounds were evaluated as inhibitors of human Src kinase using either a radioactivity-based assay or spectrophotometric assay. The compounds were assayed as inhibitors of full length recombinant human Src kinase (from Upstate Biotechnology, cat. no. 14-117) expressed and purified from baculo viral cells. […] P-0275). […] In a typical assay, all the reaction components with the exception of ATP were pre-mixed and aliquoted into assay plate wells. […] The assay plate was incubated at 30° C. for 10 min before initiating the reaction with ^33P-ATP. After 20 min of reaction, the reactions were quenched with 150 μl of 10% trichloroacetic acid (TCA) containing 20 mM Na3PO4. The quenched samples were then transferred to a 96-well filter plate (Whatman, UNI-Filter GF/F Glass Fiber Filter, cat no. 7700-3310) installed on a filter plate vacuum manifold. Filter plates were washed four times with 10% TCA containing 20 mM Na3PO4 and then 4 times with methanol. 200 μl of scintillation fluid was then added to each well. The plates were sealed and the amount of radioactivity associated with the filters was quantified on a TopCount scintillation counter. The radioactivity incorporated was plotted as a function of the inhibitor concentration. The data was fitted to a competitive inhibition kinetics model to get the Ki for the compound. The ADP produced from ATP by the human recombinant Src kinase-catalyzed phosphorylation of poly Glu-Tyr substrate was quanitified using a coupled enzyme assay (Fox et al (1998) Protein Sci 7, 2249). In this assay one molecule of NADH is oxidised to NAD for every molecule of ADP produced in the kinase reaction. The disappearance of NADH can be conveniently followed at 340 nm. […] In a typical assay, all the reaction components with the exception of ATP were pre-mixed and aliquoted into assay plate wells. […] The absorbance change at 340 nm with time, the rate of the reaction, was monitored on a molecular devices plate reader. The data of rate as a function of the inhibitor concentration was fitted to competitive inhibition kinetics model to get the Ki for the compound.

Aurora-2 = target: T2, Aurora-2 (Homo sapiens, UniProt O14965); assay: Ki determination for the inhibition of Aurora-2 (coupled enzyme assay); assay type: biochemical; settings: 70 nM Aurora-2, 30° C.
T2 sequence (O14965 1-403): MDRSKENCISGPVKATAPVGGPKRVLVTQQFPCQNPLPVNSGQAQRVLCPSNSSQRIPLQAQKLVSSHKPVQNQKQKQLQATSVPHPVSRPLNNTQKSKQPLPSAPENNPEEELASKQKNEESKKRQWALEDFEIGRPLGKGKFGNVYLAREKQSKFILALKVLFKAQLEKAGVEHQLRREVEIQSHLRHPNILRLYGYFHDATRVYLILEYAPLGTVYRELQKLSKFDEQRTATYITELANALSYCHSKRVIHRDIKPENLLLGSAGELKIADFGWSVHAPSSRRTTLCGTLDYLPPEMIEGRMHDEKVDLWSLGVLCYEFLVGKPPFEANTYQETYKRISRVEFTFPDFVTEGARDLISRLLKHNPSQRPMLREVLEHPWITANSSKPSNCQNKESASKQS
Procedure, shortened: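 Ki came from reaction rates plotted against inhibitor concentration, with rates taken as A340 decrease over 5 min at 30° C. Enzyme (70 nM final) was added after 10 min compound preincubation; stock buffer held […], 800 μM LRRASLG, PK/LDH coupling, pH 7.5.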

GSK-3β (AA 1-420) = target: T3, GSK-3β (AA 1-420) (Homo sapiens, UniProt P49841); assay: Ki determination for the inhibition of GSK-3 (coupled enzyme system); assay type: biochemical; settings: 20 μM ATP, 20 nM GSK-3β, 30° C.
T3 construct: GSK-3β (AA 1-420)
T3 sequence (P49841 whole entry, the tested form may be a part): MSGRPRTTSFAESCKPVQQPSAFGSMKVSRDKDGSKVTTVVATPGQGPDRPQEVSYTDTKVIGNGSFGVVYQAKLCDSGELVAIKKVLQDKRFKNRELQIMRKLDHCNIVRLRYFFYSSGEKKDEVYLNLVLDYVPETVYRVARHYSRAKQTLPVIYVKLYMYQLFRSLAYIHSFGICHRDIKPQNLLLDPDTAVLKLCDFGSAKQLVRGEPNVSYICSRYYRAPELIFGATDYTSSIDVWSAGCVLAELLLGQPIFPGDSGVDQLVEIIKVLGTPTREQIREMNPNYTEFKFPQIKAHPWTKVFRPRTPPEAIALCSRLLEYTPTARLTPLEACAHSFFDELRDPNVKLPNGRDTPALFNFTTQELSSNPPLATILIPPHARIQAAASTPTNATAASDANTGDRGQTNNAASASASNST
Procedure, shortened: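 GSK-3β (AA 1-420, 20 nM) was run in a pyruvate kinase/LDH-coupled NADH assay in 100 mM HEPES pH 7.5, 10 mM MgCl2, 25 mM NaCl, 1 mM DTT, 1.5% DMSO, with 300 μM phosphopeptide substrate. Compound (0.002–30 μM) was preincubated 10 min at 30° C, then 20 μM ATP was added.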

| Ki (human Src kinase; read-out: Ki value on SRC) [nM] | Ki (Aurora-2) [nM] | Ki (GSK-3β (AA 1-420)) [nM] | melting point | Ki (human Src kinase; read-out: Ki value for SRC) [nM] | Compound |
| --- | --- | --- | --- | --- | --- |
| < 100 | < 100 | < 100 | 233 to 236 °C |  | c1ccc(Sc2nc(Nc3cc(C4CC4)[nH]n3)c3ccccc3n2)cc1 [IIa-21, (5-Cyclopropyl-2H-pyrazol-3-yl)-(2-phenylsulfanyl-quinazolin-4-yl)-amine] |
| < 100 | < 100 | < 100 |  |  | Cc1cccc(Sc2nc(Nc3cc(C4CC4)[nH]n3)c3ccccc3n2)c1 [IIa-23, (5-Cyclopropyl-2H-pyrazol-3-yl)-[2-(3-methylphenylsulfanyl)-quinazolin-4-yl]-amine] |
| < 100 | < 100 | < 100 |  |  | COc1cccc(Sc2nc(Nc3cc(C4CC4)[nH]n3)c3ccccc3n2)c1 [IIa-24, (5-Cyclopropyl-2H-pyrazol-3-yl)-[2-(3-methoxyphenylsulfanyl)-quinazolin-4-yl]-amine] |
| < 100 | < 100 |  | 285 to 288 °C |  | c1ccc2cc(Sc3nc(Nc4cc(C5CC5)[nH]n4)c4ccccc4n3)ccc2c1 [IIa-27, (5-Cyclopropyl-2H-pyrazol-3-yl)-[2-(naphtalen-2-ylsulfanyl)-quinazolin-4-yl]-amine] |
| < 100 | < 100 | < 100 | 250 to 253 °C |  | Fc1ccc(Sc2nc(Nc3cc(C4CC4)[nH]n3)c3ccccc3n2)c(F)c1 [IIa-28, (5-Cyclopropyl-2H-pyrazol-3-yl)-[2-(2,4-difluorophenylsulfanyl)-quinazolin-4-yl]-amine] |
| < 100 | < 100 | < 100 | 250 to 252 °C |  | Clc1cccc(Sc2nc(Nc3cc(C4CC4)[nH]n3)c3ccccc3n2)c1Cl [IIa-30, (5-Cyclopropyl-2H-pyrazol-3-yl)-[2-(2,3-dichlorophenylsulfanyl)-quinazolin-4-yl]-amine] |
| < 100 | < 100 | < 100 | 235 to 238 °C |  | Clc1cccc(Sc2nc(Nc3cc(C4CC4)[nH]n3)c3ccccc3n2)c1 [IIa-31, [2-(3-Chlorophenylsulfanyl)-quinazolin-4-yl]-(5-cyclopropyl-2H-pyrazol-3-yl)-amine] |
| < 100 | < 100 | < 100 | 255 to 257 °C |  | Clc1ccccc1Sc1nc(Nc2cc(C3CC3)[nH]n2)c2ccccc2n1 [IIa-32, [2-(2-Chlorophenylsulfanyl)-quinazolin-4-yl]-(5-cyclopropyl-2H-pyrazol-3-yl)-amine] |
| < 100 | < 100 |  | 255 to 256 °C |  | Cc1ccc(Sc2nc(Nc3cc(C4CC4)[nH]n3)c3ccccc3n2)cc1C [IIa-33, (5-Cyclopropyl-2H-pyrazol-3-yl)-[2-(3,4-dimethylphenylsulfanyl)-quinazolin-4-yl]-amine] |
|  | < 100 | 1000 to 7000 | 153 °C (dec.) | 1000 to 6000 | CC(=O)Nc1ccc(Sc2nc(Nc3cc(C)n[nH]3)c3ccc(OCCCN4CCOCC4)cc3n2)cc1 [IIa-45, [2-(4-Acetamidophenylsulfanyl)-7-(3-morpholin-4-yl-propoxy)-quinazolin-4-yl]-(5-methyl-2H-pyrazol-3-yl)-amine] |
|  | < 100 | 100 to 1000 | 294 to 297 °C | 1000 to 6000 | Cc1cc(Nc2nc(Sc3ccc(NS(=O)(=O)C(C)C)cc3)nc3ccccc23)n[nH]1 [IIa-48, [2-(4-Isopropanesulfonylamino-phenylsulfanyl)-quinazolin-4-yl]-(5-methyl-2H-pyrazol-3-yl)-amine] |
|  | 100 to 1000 | 1000 to 7000 | 246 to 248 °C | 1000 to 6000 | Cc1cc(Nc2nc(Sc3ccc(C(=O)NCCN4CCOCC4)cc3)nc3ccccc23)n[nH]1 [IIa-65, (5-Methyl-2H-pyrazol-3-yl)-{2-[4-(2-morpholin-4-yl-ethylcarbamoyl)-phenylsulfanyl]-quinazolin-4-yl}-amine] |
|  | < 100 | 1000 to 7000 | 241 to 243 °C | 1000 to 6000 | Cc1cc(Nc2nc(Sc3ccc(NC(=O)CN(C)C)cc3)nc3ccccc23)n[nH]1 [IIa-68, {2-[4-(2-Dimethylamino-acetylamino)-phenylsulfanyl]-quinazolin-4-yl}-(5-methyl-2H-pyrazol-3-yl)-amine] |
|  | 100 to 1000 |  | 210 to 213 °C | 1000 to 6000 | Cc1cc(Nc2nc(Sc3ccc(C(=O)NCCCN(C)C)cc3)nc3ccccc23)n[nH]1 [IIa-70, {2-[4-(3-Dimethylamino-propylcarbamoyl)-phenylsulfanyl]-quinazolin-4-yl}-(5-methyl-2H-pyrazol-3-yl)-amine] |
|  | < 100 | 1000 to 7000 | 280 °C (dec.) | 1000 to 6000 | Cc1cc(Nc2nc(Sc3ccc(NC(=O)CCN(C)C)cc3)nc3ccccc23)n[nH]1 [IIa-71, {2-[4-(3-Dimethylamino-propionylamino)-phenylsulfanyl]-quinazolin-4-yl}-(5-methyl-2H-pyrazol-3-yl)-amine] |
|  | < 100 | 1000 to 7000 | 246 to 248 °C | 1000 to 6000 | CC(=O)Nc1ccc(Sc2nc(Nc3cc(C)[nH]n3)c3ccc(O)cc3n2)cc1 [IIa-74, [2-(4-Acetamidophenylsulfanyl)-7-hydroxy-quinazolin-4-yl]-(5-methyl-2H-pyrazol-3-yl)-amine] |
| < 100 | < 100 |  | 277 to 279 °C |  | c1ccc2c(Nc3cc(C4CC4)[nH]n3)nc(Oc3ccc4c(c3)CCCC4)nc2c1 [IIb-4, (5-Cyclopropyl-2H-pyrazol-3-yl)-[2-(5,6,7,8-tetrahydronaphthalen-2-yloxy)-quinazolin-4-yl]-amine] |
|  | < 100 | 100 to 1000 |  | 1000 to 6000 | COC(=O)c1cccc(Oc2nc(Nc3cc(C)[nH]n3)c3ccccc3n2)c1 [IIb-9, [2-(3-Methoxycarbonylphenoxy)-quinazolin-4-yl]-(5-methyl-2H-pyrazol-3-yl)-amine] |
| < 100 | < 100 | 100 to 1000 |  |  | Cc1cc(Nc2nc(NCc3ccc(F)cc3)nc3ccccc23)n[nH]1 [IIc-13, [2-(4-Fluorobenzylamino)-quinazolin-4-yl]-(5-methyl-2H-pyrazol-3-yl)-amine] |

| Compound | Ki (human Src kinase; read-out: Ki value on SRC) [nM] | Ki (Aurora-2) [nM] | Ki (GSK-3β (AA 1-420)) [nM] | melting point | Ki (human Src kinase; read-out: Ki value for SRC) [nM] |
| --- | --- | --- | --- | --- | --- |
| CCS(=O)(=O)Nc1ccc(Sc2nc(Nc3cc(C)[nH]n3)c3ccccc3n2)cc1 [IIa-55, [2-(4-Ethylsulfonylamino-phenylsulfanyl)-quinazolin-4-yl]-(5-methyl-2H-pyrazol-3-yl)-amine] |  | < 100 | 100 to 1000 | 279 to 280 °C | 1000 to 6000 |
| CNCC(=O)Nc1ccc(Sc2nc(Nc3cc(C)[nH]n3)c3ccccc3n2)cc1 [IIa-77, {2-[4-(2-Methylamino-acetylamino)-phenylsulfanyl]-quinazolin-4-yl}-(5-methyl-2H-pyrazol-3-yl)-amine] |  | < 100 | 1000 to 7000 | 242 to 244 °C | 1000 to 6000 |
| c1ccc2cc(Oc3nc(Nc4cc(C5CC5)[nH]n4)c4ccccc4n3)ccc2c1 [IIb-1, (5-Cyclopropyl-2H-pyrazol-3-yl)-[2-(naphthalen-2-yloxy)-quinazolin-4-yl]-amine] | < 100 | < 100 | < 100 | 327 to 328 °C |  |
